Measured values: ChEMBL document CHEMBL4387750, “Backbone modifications in peptidic inhibitors of flaviviral proteases” (Bioorg Med Chem Lett, 2019)
Where a SMILES comes first, the peptide text is derived from it. [ ]: non-standard residue; d: D form. The star is where a group is joined. dPhg = N[C@@H](C(=O)O)c1ccccc1; Phg = N[C@H](C(=O)O)c1ccccc1; Bz = O=C(c1ccccc1)*

Key:
[1] = target: Genome polyprotein (West Nile virus) (UniProt P06935); test: Inhibition of West Nile virus NS2B-NS3 protease preincubated with protein for 15 mins followed by Abz-Gly-Leu-Lys-Arg-Gly-Gly-3-(NO2)-Tyr substrate addition and measured by continuous fluorometric analysis relative to control; set-up: concentration or dose not given beside the values
[2] = target: Genome polyprotein (dengue virus type 2) (UniProt P29990); test: Inhibition of Dengue virus serotype 2 NS2B-NS3 protease at 50 uM preincubated with protein for 15 mins followed by Abz-Nle-Lys-Arg-Arg-Ser-3-(NO2)Tyr substrate addition and measured by continuous fluorometric analysis relative to control
Trypsin [3] = target: T1, Trypsin (Homo sapiens, UniProt P07477+P07478+P35030); test: Inhibition of trypsin (unknown origin) at 50 uM preincubated with protein for 15 mins followed by boc-Val-Pro-Arg-AMC substrate addition and measured by continuous fluorometric analysis relative to control; format: protein assay
[4] = target: Prothrombin (Homo sapiens) (UniProt P00734); test: Inhibition of human thrombin at 25 uM preincubated with protein for 15 mins followed by boc-Val-Pro-Arg-AMC substrate addition and measured after 10 mins by continuous fluorometric analysis relative to control
Genome polyprotein [5] = target: Genome polyprotein (dengue virus type 2, UniProt P29990); test: Inhibition of Dengue virus serotype 2 NS2B-NS3 protease preincubated with protein for 15 mins followed by Abz-Nle-Lys-Arg-Arg-Ser-3-(NO2)Tyr substrate addition and measured by continuous fluorometric analysis
Trypsin [6] = target: T1, Trypsin; test: Metabolic stability assessed as trypsin (unknown origin)-mediated drug degradation by measuring half life in pH 7.5 Tris buffer incubated up to 60 mins at 37 degC by HPLC and UV analysis; format: ADME, protein assay; conditions: pH 7.5, 1 h
[7] = Metabolic stability assessed as alpha-chymotrypsin (unknown origin)-mediated drug degradation by measuring half life in pH 7.4 phosphate buffer incubated up to 60 mins at 37 degC by HPLC and UV analysis; format: ADME; conditions: human; for Stability: buffer, pH 7.4, 1 h
[8] = Metabolic stability in Sprague-Dawley rat liver microsomes assessed as compound degradation by measuring half life incubated for 120 mins by HPLC and UV analysis; format: ADME, Microsome; conditions: for Stability: microsomes, 2 h
Genome polyprotein [9] = target: Genome polyprotein (West Nile virus, UniProt P06935); test: Inhibition of West Nile virus NS2B-NS3 protease preincubated with protein for 15 mins followed by Abz-Gly-Leu-Lys-Arg-Gly-Gly-3-(NO2)-Tyr substrate addition and measured by continuous fluorometric analysis
[10] = Metabolic stability in Sprague-Dawley rat liver microsomes assessed as compound remaining after 120 mins by HPLC and UV analysis; format: ADME, Microsome; conditions: read-out: Stability

Sequence of Genome polyprotein (West Nile virus) (P06935 whole entry): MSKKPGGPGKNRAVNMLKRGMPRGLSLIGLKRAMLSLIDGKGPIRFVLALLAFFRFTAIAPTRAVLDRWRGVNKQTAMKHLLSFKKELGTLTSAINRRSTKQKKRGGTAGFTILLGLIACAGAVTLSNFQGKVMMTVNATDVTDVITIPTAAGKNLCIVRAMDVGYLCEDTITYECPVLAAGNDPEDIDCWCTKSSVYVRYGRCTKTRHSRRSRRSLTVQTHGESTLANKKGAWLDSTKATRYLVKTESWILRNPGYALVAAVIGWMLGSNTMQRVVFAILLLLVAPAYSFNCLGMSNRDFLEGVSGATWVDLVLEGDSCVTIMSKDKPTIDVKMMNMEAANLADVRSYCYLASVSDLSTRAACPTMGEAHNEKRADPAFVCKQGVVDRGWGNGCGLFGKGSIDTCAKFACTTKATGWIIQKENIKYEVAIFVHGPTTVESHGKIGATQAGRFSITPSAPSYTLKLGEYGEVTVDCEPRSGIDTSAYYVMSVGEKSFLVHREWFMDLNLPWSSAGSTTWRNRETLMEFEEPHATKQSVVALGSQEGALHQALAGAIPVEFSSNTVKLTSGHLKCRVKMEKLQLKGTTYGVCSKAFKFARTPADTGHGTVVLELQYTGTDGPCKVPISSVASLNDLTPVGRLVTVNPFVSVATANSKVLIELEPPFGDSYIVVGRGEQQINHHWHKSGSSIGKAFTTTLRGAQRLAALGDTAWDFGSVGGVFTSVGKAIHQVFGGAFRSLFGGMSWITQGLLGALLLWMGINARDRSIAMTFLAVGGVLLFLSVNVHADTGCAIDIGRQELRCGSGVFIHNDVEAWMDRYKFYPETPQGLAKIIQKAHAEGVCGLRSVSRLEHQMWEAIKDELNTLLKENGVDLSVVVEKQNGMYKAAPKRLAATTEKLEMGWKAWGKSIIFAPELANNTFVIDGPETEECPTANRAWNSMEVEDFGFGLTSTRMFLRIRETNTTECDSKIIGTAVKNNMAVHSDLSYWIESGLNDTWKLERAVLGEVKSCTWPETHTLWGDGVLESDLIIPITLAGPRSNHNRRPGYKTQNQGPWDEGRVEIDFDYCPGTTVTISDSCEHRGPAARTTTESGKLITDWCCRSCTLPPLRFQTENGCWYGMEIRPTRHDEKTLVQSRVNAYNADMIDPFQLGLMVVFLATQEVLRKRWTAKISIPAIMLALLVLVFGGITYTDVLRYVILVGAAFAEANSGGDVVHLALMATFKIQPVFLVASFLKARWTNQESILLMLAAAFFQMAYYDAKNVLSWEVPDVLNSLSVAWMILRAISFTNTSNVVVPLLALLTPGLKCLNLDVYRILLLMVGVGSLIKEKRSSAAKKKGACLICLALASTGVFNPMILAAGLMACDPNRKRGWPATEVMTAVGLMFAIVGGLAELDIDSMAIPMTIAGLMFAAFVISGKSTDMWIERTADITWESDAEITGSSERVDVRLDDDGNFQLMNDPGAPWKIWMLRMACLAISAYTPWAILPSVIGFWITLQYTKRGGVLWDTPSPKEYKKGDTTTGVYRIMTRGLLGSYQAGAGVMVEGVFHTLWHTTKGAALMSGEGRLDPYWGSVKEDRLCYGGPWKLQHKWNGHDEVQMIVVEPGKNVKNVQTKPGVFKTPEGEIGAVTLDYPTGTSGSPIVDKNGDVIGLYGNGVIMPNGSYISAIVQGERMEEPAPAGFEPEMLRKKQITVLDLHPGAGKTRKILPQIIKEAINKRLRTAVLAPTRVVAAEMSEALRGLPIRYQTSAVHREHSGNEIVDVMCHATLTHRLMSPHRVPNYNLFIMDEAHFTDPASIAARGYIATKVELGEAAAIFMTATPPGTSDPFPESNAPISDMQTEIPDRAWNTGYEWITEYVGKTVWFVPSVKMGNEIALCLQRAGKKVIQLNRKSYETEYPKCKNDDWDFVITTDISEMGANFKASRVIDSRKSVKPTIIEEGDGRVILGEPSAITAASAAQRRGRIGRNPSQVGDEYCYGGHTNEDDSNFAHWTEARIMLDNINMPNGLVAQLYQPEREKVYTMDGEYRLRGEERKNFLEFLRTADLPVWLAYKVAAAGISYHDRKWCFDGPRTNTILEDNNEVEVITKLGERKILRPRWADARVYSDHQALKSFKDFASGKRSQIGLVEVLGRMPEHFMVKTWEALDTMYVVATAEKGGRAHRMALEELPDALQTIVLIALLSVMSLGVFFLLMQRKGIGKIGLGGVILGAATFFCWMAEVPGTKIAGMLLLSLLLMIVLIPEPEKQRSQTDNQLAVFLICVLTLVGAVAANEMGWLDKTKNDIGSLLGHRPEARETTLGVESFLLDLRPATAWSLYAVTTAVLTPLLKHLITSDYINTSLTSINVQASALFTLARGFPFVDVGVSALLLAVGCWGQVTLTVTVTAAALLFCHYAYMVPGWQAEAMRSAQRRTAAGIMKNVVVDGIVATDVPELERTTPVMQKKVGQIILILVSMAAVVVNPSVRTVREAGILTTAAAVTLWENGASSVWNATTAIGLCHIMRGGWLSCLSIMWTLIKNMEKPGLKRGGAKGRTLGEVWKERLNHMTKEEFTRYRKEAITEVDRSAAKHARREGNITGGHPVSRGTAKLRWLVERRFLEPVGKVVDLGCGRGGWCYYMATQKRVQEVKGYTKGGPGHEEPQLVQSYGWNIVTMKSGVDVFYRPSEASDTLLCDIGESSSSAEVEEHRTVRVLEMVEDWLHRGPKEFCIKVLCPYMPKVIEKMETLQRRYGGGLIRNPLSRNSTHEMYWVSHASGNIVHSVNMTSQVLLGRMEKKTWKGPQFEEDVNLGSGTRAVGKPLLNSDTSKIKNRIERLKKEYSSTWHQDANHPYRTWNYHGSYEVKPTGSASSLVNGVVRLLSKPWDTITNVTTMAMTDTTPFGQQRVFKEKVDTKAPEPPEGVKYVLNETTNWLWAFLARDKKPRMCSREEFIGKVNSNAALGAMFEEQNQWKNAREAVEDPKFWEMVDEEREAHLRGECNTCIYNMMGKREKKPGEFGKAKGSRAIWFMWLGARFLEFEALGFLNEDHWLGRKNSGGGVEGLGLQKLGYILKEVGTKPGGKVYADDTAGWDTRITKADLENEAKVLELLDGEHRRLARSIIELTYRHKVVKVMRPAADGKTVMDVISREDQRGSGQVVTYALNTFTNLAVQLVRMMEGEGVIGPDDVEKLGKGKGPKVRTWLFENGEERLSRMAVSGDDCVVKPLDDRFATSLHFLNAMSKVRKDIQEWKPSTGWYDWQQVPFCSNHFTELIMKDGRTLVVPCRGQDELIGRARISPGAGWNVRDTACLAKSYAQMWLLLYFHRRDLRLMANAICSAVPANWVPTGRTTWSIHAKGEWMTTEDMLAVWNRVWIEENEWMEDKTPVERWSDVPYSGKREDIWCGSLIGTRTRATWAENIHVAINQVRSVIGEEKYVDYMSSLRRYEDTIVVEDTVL
Sequence of Genome polyprotein (West Nile virus, UniProt P06935) (P06935 1371-1501 limits assumed): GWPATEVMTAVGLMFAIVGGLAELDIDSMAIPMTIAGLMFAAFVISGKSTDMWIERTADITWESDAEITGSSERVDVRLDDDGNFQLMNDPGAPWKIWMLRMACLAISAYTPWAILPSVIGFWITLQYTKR
Sequence of Genome polyprotein (West Nile virus, UniProt P06935) (P06935 1502-2120 limits assumed): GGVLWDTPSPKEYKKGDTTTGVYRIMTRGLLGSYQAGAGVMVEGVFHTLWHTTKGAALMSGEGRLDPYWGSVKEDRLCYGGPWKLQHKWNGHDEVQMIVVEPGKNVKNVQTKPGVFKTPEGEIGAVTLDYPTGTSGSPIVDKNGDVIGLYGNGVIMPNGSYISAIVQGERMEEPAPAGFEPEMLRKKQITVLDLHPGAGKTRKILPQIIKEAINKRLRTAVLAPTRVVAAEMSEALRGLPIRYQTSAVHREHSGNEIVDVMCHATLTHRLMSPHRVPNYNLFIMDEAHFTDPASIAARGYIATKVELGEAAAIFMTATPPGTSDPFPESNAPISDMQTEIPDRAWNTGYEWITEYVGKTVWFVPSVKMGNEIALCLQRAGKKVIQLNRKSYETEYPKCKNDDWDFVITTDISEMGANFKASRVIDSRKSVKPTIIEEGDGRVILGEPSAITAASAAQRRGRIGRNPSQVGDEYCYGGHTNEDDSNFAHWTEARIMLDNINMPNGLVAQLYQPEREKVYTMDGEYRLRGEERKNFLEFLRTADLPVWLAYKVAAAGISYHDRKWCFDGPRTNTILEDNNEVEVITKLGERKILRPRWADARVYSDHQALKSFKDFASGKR

Compound | inhibition [1] | inhibition [2] | inhibition (Trypsin [3]) | inhibition [4] | IC50 (Genome polyprotein [5]) | Stability (Trypsin [6]) | Stability [7] | Stability [8] | IC50 (Genome polyprotein [9]) | half-life ([8]; Sprague-Dawley, liver microsomes) | remaining at 2 h [10] | half-life ([7]; alpha-chymotrypsin in phosphate buffer, pH 7.4)
CN(C(=O)[C@H](CCCNC(=N)N)NC(=O)c1ccccc1)[C@@H](CCCCN)C(=O)N[C@@H](C(N)=O)c1ccccc1 | < 5% | 36.3% | < 5% | < 5% | – | – | – | – | – | – | – | –
N=C(N)NCCCN(CC(=O)N[C@@H](CCCCN)C(=O)N[C@@H](C(N)=O)c1ccccc1)C(=O)c1ccccc1 | 12.4% | 32.7% | < 5% | < 5% | – | – | – | – | – | – | – | –
N=C(N)NCCC[C@H](NC(=O)c1ccccc1)C(=O)N[C@@H](CCCCN)C(=O)N(CC(N)=O)c1ccccc1 | 19.8% | 28.9% | < 5% | < 5% | – | – | – | – | – | – | – | –
N=C(N)NCCC[C@H](N[C@H](c1ccccc1)C(F)(F)F)C(=O)N[C@@H](CCCCN)C(=O)N[C@@H](C(N)=O)c1ccccc1 | 24.6% | 43.7% | < 5% | < 5% | – | – | – | – | – | – | – | –
CN(C(=O)c1ccccc1)[C@@H](CCCNC(=N)N)C(=O)N[C@@H](CCCCN)C(=O)N[C@@H](C(N)=O)c1ccccc1 | 48.4% | 93.6% | < 5% | < 5% | 3.6 µM | Stable | Stable | Stable | – | – | – | –
CN(C(=O)c1ccccc1)[C@@H](CCCNC(=N)N)C(=O)N[C@@H](CCCCN)C(=O)N[C@@H](C(N)=O)c1ccc(OCc2ccccc2)cc1 | 92% | 97.8% | < 5% | 5.5% | 1.6 µM | – | – | Stable | 7.1 µM | – | – | –
CN(C(=O)c1ccccc1)[C@@H](CCCNC(=N)N)C(=O)N[C@@H](CCCCN)C(=O)N[C@@](C)(C(N)=O)c1ccccc1 | 50.8% | 93.9% | 10.9% | < 5% | 3 µM | – | – | – | – | – | – | –
C[C@](NC(=O)[C@H](CCCCN)NC(=O)[C@H](CCCNC(=N)N)NC(=O)c1ccccc1)(C(N)=O)c1ccccc1 | 82.5% | 99.1% | 11.8% | 6.5% | 0.6 µM | Stable | Stable | Stable | 14.3 µM | – | – | –
N=C(N)NCCC[C@H](NC(=O)c1ccccc1)C(=O)N[C@@H](CCCCN)C(=O)N[C@@H](C(N)=O)c1ccc(OCc2ccccc2)cc1 | 101% | 100% | 18.4% | 7.8% | 0.4 µM | Stable | – | Stable | 0.8 µM | – | – | –
N=C(N)NCCC[C@H](NC(=O)c1ccccc1)C(=O)N[C@@H](CCCCN)CC(=O)N[C@@H](C(N)=O)c1ccccc1 | 14.6% | 31.8% | < 5% | < 5% | – | – | – | – | – | – | – | –
C[C@@](NC(=O)[C@H](CCCCN)NC(=O)[C@H](CCCNC(=N)N)NC(=O)c1ccccc1)(C(N)=O)c1ccccc1 | 47.4% | 81.7% | 20.7% | < 5% | 9.5 µM | – | – | – | – | – | – | –
N=C(N)NCCC[C@H](N[C@@H](c1ccccc1)C(F)(F)F)C(=O)N[C@@H](CCCCN)C(=O)N[C@@H](C(N)=O)c1ccccc1 | 6% | 32.1% | < 5% | < 5% | – | – | – | – | – | – | – | –
CC(NC(=O)[C@H](CCCCN)NC(=O)[C@H](CCCNC(=N)N)NC(=O)c1ccccc1)(C(N)=O)c1ccccc1 (stereo partly drawn) | 59.8% | 97.8% | < 5% | 9.1% | 1.3 µM | – | – | – | 24.3 µM | – | – | –
N=C(N)NCCC[C@H](NC(=O)c1ccccc1)C(=O)N[C@@H](CCCCN)C(=O)N[C@@H](CC(N)=O)c1ccccc1 | 12.6% | 17.6% | 7.5% | < 5% | – | – | – | – | – | – | – | –
C[C@]12CC[C@H]3[C@@H](CCC4=CC(=O)CC[C@@]43C)[C@@H]1CC[C@@H]2O [TESTOSTERONE] | – | – | – | – | – | – | – | – | – | 9 to 35 min | – | –
N=C(N)NCCC[C@H](NC(=O)C(=O)c1ccccc1)C(=O)N[C@@H](CCCCN)C(=O)N[C@@H](C(N)=O)c1ccccc1 | 43.2% | 94% | 33.5% | < 5% | 4.1 µM | – | – | – | – | – | – | –
N=C(N)NCCC[C@@H](NC(=O)[C@@H](N)Cc1ccc(O)cc1)C(=O)N[C@@H](Cc1ccccc1)C(=O)N[C@@H](Cc1ccccc1)C(N)=O (H-Y[dR]FF-NH2) | – | – | – | – | – | Stable | Unstable | – | – | – | 85% | –
CCC(NC(=O)[C@H](CCCCN)NC(=O)[C@H](CCCNC(=N)N)NC(=O)c1ccccc1)(C(N)=O)c1ccccc1 (stereo partly drawn) | 12.1% | 35.2% | 8.7% | < 5% | – | – | – | – | – | – | – | –
N=C(N)NCCC[C@H](NC(=O)c1ccccc1)C(=O)N[C@@H](CCCCN)CC(=O)N(CC(N)=O)c1ccccc1 | 17.7% | 22.7% | < 5% | < 5% | – | – | – | – | – | – | – | –
N=C(N)NCCC[C@H](NC(=O)c1ccccc1)C(=O)N[C@@H](CCCCN)C(=O)N[C@H](C(N)=O)c1ccccc1 (Bz-Arg-Lys-[Phg]-NH2) | – | 95% | < 5% | < 5% | 3.3 µM | – | – | – | – | – | – | –
N=C(N)NCCC[C@H](NC(=O)c1ccccc1)C(=O)N[C@@H](CCCCN)C(=O)NC(C(N)=O)(c1ccccc1)c1ccccc1 | 33.3% | 20.6% | 45.5% | < 5% | – | – | – | – | – | – | – | –
N=C(N)NCCC[C@H](NC(=O)c1ccccc1)C(=O)N(CCCCN)CC(=O)N[C@@H](C(N)=O)c1ccccc1 | 18.4% | < 5% | 10.6% | < 5% | – | – | – | – | – | – | – | –
N=C(N)NCCC[C@H](NC(=O)c1ccccc1)C(=O)N[C@@H](CCCCN)C(=O)N[C@@H](C(N)=O)c1ccccc1 (Bz-Arg-Lys-[dPhg]-NH2) | 99% | 99.3% | 12.5% | < 5% | 3.8 µM | Stable | – | Stable | 3.8 µM | – | – | 11 min
CN(C(=O)[C@H](CCCCN)NC(=O)[C@H](CCCNC(=N)N)NC(=O)c1ccccc1)[C@@H](C(N)=O)c1ccccc1 | 36.7% | 33% | < 5% | < 5% | – | – | – | – | – | – | – | –
